≈ marks a conversion by molar mass, not a printed value. Like-named read-outs stand apart in the source and are kept apart here.
What was measured:
S. aureus [1] = test: MIC, broth microdilution; assay type: cell-based, Staphylococcus aureus; conditions: Staphylococcus aureus; for MIC: read-out: MIC
Outline: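 Incubation ran for 16–20 h at 37 °C after setup per Clinical and Laboratory Standards Institute microdilution procedure. Growth was then observed to assign the MIC. Assays were replicated at least three times.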

M. catarrhalis = test: MIC, broth microdilution; assay type: cell-based, Moraxella catarrhalis; conditions: Moraxella catarrhalis; M. catarrhalis 13L332, Ery-S; read-out: MIC
Outline: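 Compounds were diluted 2-fold in cation-adjusted Mueller-Hinton broth and mixed with bacteria to a final 5 × 10^5 CFU/mL. Plates were then incubated 16–20 h at 37 °C and growth was scored by eye, per CLSI guidelines.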

S. aureus [2] = test: MICs and MBCs against selected S. aureus isolates; assay type: cell-based, Staphylococcus aureus
[3] = system: 15B196 S. aureus ribosomes (A2058-methylated); test: PURE in vitro translation inhibition assay; assay type: biochemical, Staphylococcus aureus; conditions: mean ± SD
Outline: (§1)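 Purified S. aureus ribosomes replaced E. coli ribosomes in a reconstituted PURE system translating Nanoluc luciferase, run 60 min at 37 °C with compound at 0.001–1000 μM. Luminescence was normalized to a compound-free control, and each compound was tested in three biological replicates.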

WT S. aureus ribosomes = test: PURE in vitro translation inhibition assay; assay type: biochemical, Staphylococcus aureus; conditions: mean ± SD
Outline: as §1

[4] = CCK-8 assay for cytotoxicity; assay type: cell-based, human; conditions: human, HEK293T cells, HEK293T cell viability
Outline: (§2)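 Cells seeded at 6 × 10^3 (HepG2) or 4 × 10^3 (HEK293T) per well in DMEM/10% FBS, treated after overnight culture with compound dilutions for 48 h. Viability read with CCK-8 reagent; triplicate wells, three independent repeats.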

HEK293T cells = test: CCK-8 assay for cytotoxicity; assay type: cell-based, human; conditions: 48 h
Outline: as §2

[5] = Staphylococcus aureus, MRSA, strain 1, MRSA, i-ermA
[6] = Staphylococcus aureus, MRSA, strain 4, MRSA, i-ermA
[7] = Staphylococcus aureus, MRSA, strain 5, MRSA, i-ermC
[8] = Staphylococcus aureus, MRSA, strain 6, MRSA, c-ermB
[9] = Staphylococcus aureus, MRSA, strain 7, MRSA, c-ermB
[10] = Staphylococcus aureus, MRSA, strain 10, MRSA, c-ermB
[11] = Staphylococcus aureus, MRSA, strain 11, MRSA, c-ermB

## CC[C@H]1OC(=O)[C@H](C)[C@@H](OC(=O)NCCCCCCC#Cc2ccc3c(=O)c(C(=O)O)cn(C)c3c2)[C@H](C)[C@@H](O[C@@H]2O[C@H](C)C[C@H](N(C)C)[C@H]2O)[C@](C)(OC)C[C@@H](C)C(=O)[C@H](C)[C@H]2NC(=O)O[C@@]21C [MCX-219]
S. aureus [1]; MRSA, MRSA (13)
  MIC90: 4 µg/mL (≈ 4.14 µM)
S. aureus [1]; MSSA, MSSA (10)
  MIC50: 0.25 µg/mL (≈ 0.258 µM)
S. aureus [1]; S. aureus 15B196, c-ermB
  MIC: 1 µg/mL (≈ 1.03 µM)
S. aureus [1]; S. aureus PU32, i-ermA
  MIC: 0.25 µg/mL (≈ 0.258 µM)
S. aureus [1]; c-MLSB (constitutive) S. aureus (13)
  MIC50: 2 µg/mL (≈ 2.07 µM)
S. aureus [1]; c-MLSB S. aureus (13)
  MIC90: 16 µg/mL (≈ 16.5 µM)
S. aureus [1]; i-MLSB S. aureus (10)
  MIC50: 0.25 µg/mL (≈ 0.258 µM)
  MIC90: 0.25 µg/mL (≈ 0.258 µM)
S. aureus [1]; MSSA (10)
  MIC90: 16 µg/mL (≈ 16.5 µM)
M. catarrhalis
  MIC: 0.5 µg/mL (≈ 0.517 µM)
S. aureus [2]; S. aureus ATCC29213
  MBC/MIC: 4
S. aureus [2]; Staphylococcus aureus, ATCC29213, S. aureus ATCC29213 (Table S10), read-out: MIC
  MIC: 0.25 µg/mL (≈ 0.258 µM)
S. aureus [2]; [5]
  MBC: 1 µg/mL (≈ 1.03 µM)
  MIC: 0.25 µg/mL (≈ 0.258 µM)
S. aureus [2]; [6]
  MBC: 0.5 µg/mL (≈ 0.517 µM)
  MIC: 0.12 µg/mL (≈ 0.124 µM)
S. aureus [2]; [7]
  MBC: 2 µg/mL (≈ 2.07 µM)
  MIC: 1 µg/mL (≈ 1.03 µM)
S. aureus [2]; [8]
  MBC: 16 µg/mL (≈ 16.5 µM)
  MIC: 2 µg/mL (≈ 2.07 µM)
S. aureus [2]; [9]
  MBC: > 16 µg/mL
  MIC: 2 µg/mL (≈ 2.07 µM)
S. aureus [2]; [10]
  MBC: 16 µg/mL (≈ 16.5 µM)
  MIC: 4 µg/mL (≈ 4.14 µM)
S. aureus [2]; [11]
  MBC: > 16 µg/mL
  MIC: 2 µg/mL (≈ 2.07 µM)
S. aureus [2]; Staphylococcus aureus, MSSA, strain 2, MSSA, i-ermC, read-out: MIC
  MIC: 0.25 µg/mL (≈ 0.258 µM)
S. aureus [2]; Staphylococcus aureus, MSSA, strain 3, MSSA, i-ermC, read-out: MIC
  MIC: 0.25 µg/mL (≈ 0.258 µM)
S. aureus [2]; Staphylococcus aureus, MSSA, strain 8, MSSA, c-ermB
  MBC: 16 µg/mL (≈ 16.5 µM)
S. aureus [2]; Staphylococcus aureus, MSSA, strain 8, MSSA, c-ermB, read-out: MIC
  MIC: 4 µg/mL (≈ 4.14 µM)
S. aureus [2]; Staphylococcus aureus, MSSA, strain 9, MSSA, c-ermB, read-out: MIC
  MIC: 0.5 µg/mL (≈ 0.517 µM)
S. aureus [2]; Staphylococcus aureus, S. aureus ATCC29213, read-out: MBC
  MBC: 1 µg/mL (≈ 1.03 µM)
S. aureus [2]; Staphylococcus aureus, strain 3, MSSA, i-ermC, read-out: MBC
  MBC: 2 µg/mL (≈ 2.07 µM)
S. aureus [2]; selected S. aureus isolates
  S. aureus isolates with bactericidal activity (MBC/MIC ≤ 4): 58.3%
S. aureus [2]; strain 1, MRSA, i-ermA
  MBC/MIC: 4
S. aureus [2]; strain 2, MSSA, i-ermC
  MBC: 2 µg/mL (≈ 2.07 µM)
  MBC/MIC: 8
S. aureus [2]; strain 3, MSSA, i-ermC
  MBC/MIC: 8
S. aureus [2]; strain 4, MRSA, i-ermA
  MBC/MIC: 4
S. aureus [2]; strain 5, MRSA, i-ermC
  MBC/MIC: 2
S. aureus [2]; strain 6, MRSA, c-ermB
  MBC/MIC: 8
S. aureus [2]; strain 7, MRSA, c-ermB
  MBC/MIC: > 8
S. aureus [2]; strain 8, MSSA, c-ermB
  MBC/MIC: 4
S. aureus [2]; strain 9, MSSA, c-ermB
  MBC/MIC: 4
S. aureus [2]; strain 10, MRSA, c-ermB
  MBC/MIC: 4
S. aureus [2]; strain 11, MRSA, c-ermB
  MBC/MIC: > 8
[3]
  IC50: 570 ± 140 nM
WT S. aureus ribosomes
  IC50: 720 ± 370 nM
[4]
  CC50 at 48 h: 25.7 ± 4.08 µM
HEK293T cells; HEK293T cell viability
  CC50: 26 µM
HEK293T cells; HEK293T, 5 μM
  cytotoxicity at 5 μM: significantly reduced cytotoxicity compared to TcmX

Reference: publication PMC11239830, “Synthetic macrolides overcoming MLSBK-resistant pathogens” (Cell Discovery, 2024)
